In US9340821B2, “Specific fluorescent probe based on albumin pseudo-esterase hydrolysis reaction and use thereof” (DALIAN INSTITUTE OF CHEMICAL PHYSICS, CHINESE ACADEMY OF …, priority 2013, dated 2016):

Legend:
HSA [1] = molecular target: T1, HSA (Homo sapiens, UniProt P02768); test: Quantitative analysis of albumin in human plasma sample; design: from tissue; host or cells: human plasma (A3); human urine (A4); details: human plasma diluted 200 times in PBS pH 7.4, probe 10 μM, 45° C., 30 min
Method: (1) 1 μL of human plasma sample was diluted to 200 times by PBS (pH 7.4, 10 mM), then samples were incubated turmoil at 45° C. for 10 min.
(2) 4 μL fluorescent probe B (0.5 mM) was added to the above solution to make the final concentration of the fluorescent probe to 10 μM, and then samples were incubated at 45° C.
(3) After 30 min, 200 μL of ice-cold CH3CN was added to the sample and stirred, and then the reaction was stopped.
(4) Detecting the fluorescence intensity of probe B (λex=342 nm, λem=416 nm) and hydrolysate B1 (λex=452 nm, λem=564 nm) at corresponding wavelength and calculating the fluorescence intensity ratio of B1 to B, the fluorescence ratio was substituted into working curve from example 2, concentration of HSA in plasma albumin was calculated as […].

HSA [2] = molecular target: T1, HSA; test: Quantitative analysis of albumin in urine sample; details: human urine diluted with PBS pH 7.4, probe 10 μM, 37° C., 30 min
Method: (1) 490 μL of human urine sample was diluted by 490 μL PBS (pH 7.4, 10 mM), and then samples were incubated at 45° C. for 10 min.
(2) 20 μL fluorescent probe C (0.5 mM) was added to the above solution to make the final concentration of the fluorescent probe to 10 μM, and then samples were incubated turmoil at 37° C. for 30 min, 1 mL ice-cold CH3CN was added to the sample and stirred for 15 second, then the reaction was stopped.
(3) Detecting the fluorescence intensity of probe C (λex=342 nm, λem=416 nm) and hydrolysate C1 (λex=452 nm, λem=564 nm) at corresponding wavelength and the fluorescence intensity ratio of C1 to C was calculated.
(4) Finding the corresponding albumin level in the working curve, concentration of HSA in the sample was calculated as 48 mg/L.

HSA [3] = molecular target: T1, HSA; test: Quantitative analysis of HSA in recombinant expression system; details: 1 mg/mL recombinant HSA in PBS pH 7.4, probe 10 μM, 37° C., 30 min
Method: (1) 10 mg recombinant HSA was weighted and dissolved in PBS (pH=7.4), configuring to 1 mg/mL albumin solution at 37° C.
(2) 20 μL fluorescent probe D (0.5 mM) was added to the above solution to make the final concentration of the fluorescent probe to 10 μM, and then samples were incubated turmoil at 37° C. for 30 min, 1 mL ice-cold CH3CN was added to the sample and stirred for 15 second, then the reaction stopped.
(3) Detecting the fluorescence intensity of probe D (λex=342 nm, λem=416 nm) and hydrolysate D1 (λex=452 nm, λem=564 nm) at corresponding wavelength and the fluorescence intensity ratio of D1 to D was calculated.
(4) Based on the working curve, the concentration of HSA in this sample (1 mg/mL recombinant HSA solution) was calculated as 14.9 μM.

T1 sequence (P02768 25-609): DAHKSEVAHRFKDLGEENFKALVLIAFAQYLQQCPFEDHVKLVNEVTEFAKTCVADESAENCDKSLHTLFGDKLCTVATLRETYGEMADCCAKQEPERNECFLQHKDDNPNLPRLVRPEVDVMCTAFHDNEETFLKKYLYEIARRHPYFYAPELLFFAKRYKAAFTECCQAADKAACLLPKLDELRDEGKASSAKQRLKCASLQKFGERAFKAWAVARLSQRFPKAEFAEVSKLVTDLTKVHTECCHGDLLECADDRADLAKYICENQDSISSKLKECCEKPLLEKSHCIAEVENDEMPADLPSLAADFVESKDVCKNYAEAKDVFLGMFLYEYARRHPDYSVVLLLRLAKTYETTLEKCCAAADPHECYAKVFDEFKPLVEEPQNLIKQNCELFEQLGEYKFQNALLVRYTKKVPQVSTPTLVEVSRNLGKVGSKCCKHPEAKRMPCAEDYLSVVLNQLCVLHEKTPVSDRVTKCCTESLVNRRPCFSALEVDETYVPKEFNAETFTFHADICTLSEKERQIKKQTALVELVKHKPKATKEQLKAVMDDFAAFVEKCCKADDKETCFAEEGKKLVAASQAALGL

**Q.** With CCCCN1C(=O)c2cccc3c(OC(=O)c4ccc(C)cc4)ccc(c23)C1=O [Probe B, N-n-butyl-1,8-naphthalimide-4-(4-methylphenylbenzoate)] as the compound, how does the concentration of HSA in plasma calculated from fluorescence ratio (HSA [1]) read?
**A.** 46.2 mg/mL

**Q.** How did the “concentration of HSA in urine sample calculated from working curve” value (HSA [2]) turn out when O=C(O)CCCN1C(=O)c2cccc3c(OC(=O)c4ccc(-c5ccccc5)cc4)ccc(c23)C1=O [Probe C, N-3-carboxy propyl-1,8-naphthalimide-4-phenylbenzoate] was run?
**A.** 48 mg/L

**Q.** For CCCCN1C(=O)c2cccc3c(OC(=O)c4ccc(OC)cc4)ccc(c23)C1=O [Probe D, N-n-butyl-1,8-naphthalimide-4-(4-methoxyphenylbenzoate)], which “concentration of HSA in recombinant HSA solution calculated from working curve” value (HSA [3]) is on record?
**A.** 14.9 µM
